Assay results as given in patent US4812481A, “Synergistic combination of amantadiene and selegiline” (Degussa Aktiengesellschaft, priority 1986, dated 1989).

Key:
akinetic crisis = experiment: improvement of the akinetic crisis (critical deteriorations of the Morbus Parkinson); format: in vivo, human; conditions: intravenous amantadine, without or with addition of selegiline
Parkinson's disease = experiment: anti-Parkinsonism action in human (Webster scale, disability score); format: in vivo
Description: The effect of the anti-Parkinsonism action is established, for example, by Webster, D. D., Med. Treat. (N.Y.) 5, pp. 257-282, 1968. Here, the different symptoms are assigned and weighted after application of the monosubstance amantadine or the combination:
1. Slowed motor response of the hands
2. Rigor (elevation of the muscle tone)
4. Simultaneous swinging of the upper extremities
10. Ability to stand alone.
An anti-Parkinsonism action is present if the sum of the values resulting from the Webster scale (the so-called disability score) is lower than the initial value without medication (<30). The synergistic effect of the combination results from the following: When selegiline is used in addition, the sum of the disability score is lower than that which would have been achieved if only amantadine had been used and/or the duration of the effectiveness of amantadine is extended.

NC12CC3CC(CC(C3)C1)C2 [amantadine, 1-amino-adamantane]
onset of improvement of the akinetic crisis (akinetic crisis): relatively slowly setting in improvement of the akinetic crisis

C#CCN(C)[C@H](C)Cc1ccccc1 [selegiline, N-(1-phenyl-2-propyl)-N-methyl-2-propinylamine]
anti-Parkinsonism action (Parkinson's disease; Parkinson's disease, compared to pure amantadine): almost no anti-Parkinsonism action
improvement of the symptoms of Parkinson (Webster sums) (Parkinson's disease; early stages of Morbus Parkinsonism): does not show sufficient effect in regard to improving the symptoms of the Parkinson symptomatics
